ChEMBL document CHEMBL5620343, “Advances in the development of phosphodiesterase 7 inhibitors” (Eur J Med Chem, 2023)
≈ marks a conversion by molar mass, not a printed value.

Key:
[1] = Oral bioavailability in mouse at 2.5 mg/kg; assay type: ADME, organism-based; settings: in vivo
[2] = biological target: T1, High affinity 3',5'-cyclic-AMP phosphodiesterase 7A (Homo sapiens, UniProt Q13946); experiment: Inhibition of recombinant PDE7A1 (unknown origin) expressed in Escherichia coli BL21 using [3H]cAMP as substrate preincubated for 15 mins followed by compound addition and measured after 1 hr by liquid scintillation method
[3] = biological target: 3',5'-cyclic-AMP phosphodiesterase 4D (Homo sapiens, UniProt Q08499); experiment: Inhibition of human PDE4D3
Phosphodiesterase 3 = Phosphodiesterase 3 (Homo sapiens, UniProt Q14432+Q13370); experiment: Inhibition of human recombinant PDE3 expressed in Escherichia coli
[4] = biological target: T1, High affinity 3',5'-cyclic-AMP phosphodiesterase 7A; experiment: Inhibition of PDE7A (unknown origin)
Phosphodiesterase 7 [5] = biological target: T2, Phosphodiesterase 7 (Homo sapiens, UniProt Q13946+Q9NP56); experiment: Inhibition of full length PDE7 (unknown origin) using FAM-cAMP as substrate by fluorescence based analysis; assay type: protein assay
[6] = biological target: T3, Glycogen synthase kinase-3 beta (Homo sapiens, UniProt P49841); experiment: Inhibition of GSK-3beta (unknown origin)
[7] = biological target: 3',5'-cyclic-AMP phosphodiesterase 4B (Homo sapiens, UniProt Q07343); experiment: Inhibition of PDE4B1 (unknown origin)
[8] = Aqueous solubility of compound in PBS at pH 6.5; assay type: physicochemical
Phosphodiesterase 7 [9] = biological target: T2, Phosphodiesterase 7; experiment: Inhibition of recombinant PDE7 (unknown origin) expressed in Escherichia coli BL21 (DE3) using [3H]cAMP as substrate preincubated for 15 mins followed by compound addition and incubated for 1 hr by liquid scintillation method
[10] = biological target: T3, Glycogen synthase kinase-3 beta; experiment: Inhibition of GSK3beta (unknown origin) activity assessed as […] by ADP-Glo Kinase Assay
Phosphodiesterase 7 [11] = biological target: T2, Phosphodiesterase 7; experiment: Inhibition of PDE7 (unknown origin) by fluorescent based assay; assay type: protein assay
[12] = Oral bioavailability in rat; assay type: ADME, organism-based; settings: in vivo
Phosphodiesterase 4 [13] = biological target: T4, Phosphodiesterase 4 (Homo sapiens, UniProt P27815+Q08499+Q07343+Q08493); experiment: Inhibition of human recombinant PDE4; assay type: protein assay
[14] = Half life in rat; assay type: ADME; settings: in vivo
Phosphodiesterase 4 [15] = biological target: T4, Phosphodiesterase 4; experiment: Inhibition of PDE4 (unknown origin) by fluorescent based assay; assay type: protein assay
Phosphodiesterase 7 [16] = biological target: T2, Phosphodiesterase 7; experiment: Inhibition of PDE7 (unknown origin); assay type: protein assay
[17] = biological target: T1, High affinity 3',5'-cyclic-AMP phosphodiesterase 7A; experiment: Inhibition of recombinant PDE7A1 (130 to 482 residues) (unknown origin) expressed in Escherichia coli BL21 (DE3) using [3H]cAMP as substrate incubated for 15 mins by liquid scintillation method
[18] = biological target: 3',5'-cyclic-AMP phosphodiesterase 4A (Homo sapiens, UniProt P27815); experiment: Inhibition of PDE4A1 (unknown origin)
[19] = biological target: 3',5'-cyclic-AMP phosphodiesterase 7B (Homo sapiens, UniProt Q9NP56); experiment: Inhibition of PDE7B (unknown origin) by 3H-cAMP scintillation proximity assay
[20] = Brain to plasma ratio in iv dosed rat measured after 30 mins; assay type: ADME, organism-based; settings: read-out: BPR
[21] = Inhibition of PDE8 (unknown origin) by fluorescent based assay; design: species or system Homo sapiens
Homo sapiens = organism: Homo sapiens; experiment: Selectivity index, ratio of IC50 for human PDE4B1 S133D mutant to IC50 for human PDE4D7 S129D mutant
[22] = Inhibition of human PDE4 catalytic domain expressed in Escherichia coli
[23] = Selectivity index, ratio of IC50 for inhibition of PDE7A1 (130 to 482 residues) (unknown origin) expressed in Escherichia coli BL21 to IC50 for inhibition of recombinant PDE4D2 (86 to 413 residues) (unknown origin) expressed in Escherichia coli BL21

Chain of 3',5'-cyclic-AMP phosphodiesterase 4D (Q08499 whole entry): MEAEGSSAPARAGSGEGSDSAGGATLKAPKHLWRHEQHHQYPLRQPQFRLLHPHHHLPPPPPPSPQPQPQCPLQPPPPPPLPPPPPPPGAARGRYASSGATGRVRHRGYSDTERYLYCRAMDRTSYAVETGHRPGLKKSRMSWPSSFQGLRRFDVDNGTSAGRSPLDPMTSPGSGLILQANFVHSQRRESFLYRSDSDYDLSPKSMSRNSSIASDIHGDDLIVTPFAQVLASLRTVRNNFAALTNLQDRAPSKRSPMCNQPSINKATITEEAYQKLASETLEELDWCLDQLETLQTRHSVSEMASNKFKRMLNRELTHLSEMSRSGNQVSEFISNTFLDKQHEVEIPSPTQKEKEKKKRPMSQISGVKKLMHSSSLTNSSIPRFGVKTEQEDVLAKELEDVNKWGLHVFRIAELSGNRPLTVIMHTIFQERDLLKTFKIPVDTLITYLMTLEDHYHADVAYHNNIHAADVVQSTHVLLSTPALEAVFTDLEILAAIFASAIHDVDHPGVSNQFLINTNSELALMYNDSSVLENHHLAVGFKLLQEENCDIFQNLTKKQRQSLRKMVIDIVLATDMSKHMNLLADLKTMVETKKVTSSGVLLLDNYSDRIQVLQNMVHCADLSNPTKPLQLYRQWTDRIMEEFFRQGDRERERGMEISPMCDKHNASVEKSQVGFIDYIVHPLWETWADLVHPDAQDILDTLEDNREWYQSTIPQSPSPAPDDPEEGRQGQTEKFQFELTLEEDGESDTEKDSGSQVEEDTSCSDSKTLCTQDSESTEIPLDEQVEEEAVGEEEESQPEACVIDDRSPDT
T1 sequence (Q13946 whole entry): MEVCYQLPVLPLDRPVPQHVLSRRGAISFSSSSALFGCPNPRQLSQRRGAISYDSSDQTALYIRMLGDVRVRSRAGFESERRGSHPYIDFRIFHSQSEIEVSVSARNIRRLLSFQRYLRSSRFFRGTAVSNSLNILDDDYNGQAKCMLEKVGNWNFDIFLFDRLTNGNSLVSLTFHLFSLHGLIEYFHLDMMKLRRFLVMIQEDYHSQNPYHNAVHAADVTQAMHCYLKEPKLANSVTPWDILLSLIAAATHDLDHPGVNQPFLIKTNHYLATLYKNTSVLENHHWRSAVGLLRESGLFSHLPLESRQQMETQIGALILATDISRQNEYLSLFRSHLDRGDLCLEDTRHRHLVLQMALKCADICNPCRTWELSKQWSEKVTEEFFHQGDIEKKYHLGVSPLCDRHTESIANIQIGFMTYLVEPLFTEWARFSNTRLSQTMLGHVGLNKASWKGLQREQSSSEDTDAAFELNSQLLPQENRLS
T3 sequence (P49841 whole entry): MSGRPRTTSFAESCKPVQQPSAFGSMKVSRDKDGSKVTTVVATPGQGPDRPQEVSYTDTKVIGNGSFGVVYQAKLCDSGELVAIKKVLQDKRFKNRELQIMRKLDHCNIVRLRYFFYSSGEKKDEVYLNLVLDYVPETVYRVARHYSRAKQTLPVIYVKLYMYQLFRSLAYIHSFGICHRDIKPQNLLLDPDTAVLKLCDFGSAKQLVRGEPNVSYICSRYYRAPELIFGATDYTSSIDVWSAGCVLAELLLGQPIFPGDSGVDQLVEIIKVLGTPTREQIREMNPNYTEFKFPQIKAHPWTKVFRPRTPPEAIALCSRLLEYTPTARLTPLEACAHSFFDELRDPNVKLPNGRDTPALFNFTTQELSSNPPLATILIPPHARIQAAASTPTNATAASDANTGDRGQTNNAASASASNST
Chain of 3',5'-cyclic-AMP phosphodiesterase 7B (Q9NP56 whole entry): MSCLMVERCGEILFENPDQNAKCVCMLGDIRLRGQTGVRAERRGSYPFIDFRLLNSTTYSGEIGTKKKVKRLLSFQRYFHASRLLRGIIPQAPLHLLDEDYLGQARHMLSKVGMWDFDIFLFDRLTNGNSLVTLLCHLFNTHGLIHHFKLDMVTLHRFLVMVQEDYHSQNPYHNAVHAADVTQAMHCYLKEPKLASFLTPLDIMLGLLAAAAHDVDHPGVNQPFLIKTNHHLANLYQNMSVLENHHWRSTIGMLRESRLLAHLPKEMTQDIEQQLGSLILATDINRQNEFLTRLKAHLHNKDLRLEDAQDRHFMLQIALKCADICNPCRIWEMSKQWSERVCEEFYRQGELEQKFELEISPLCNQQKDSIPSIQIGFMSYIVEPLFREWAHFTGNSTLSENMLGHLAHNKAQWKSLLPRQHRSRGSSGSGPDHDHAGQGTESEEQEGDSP
Chain of 3',5'-cyclic-AMP phosphodiesterase 4B (Q07343 whole entry): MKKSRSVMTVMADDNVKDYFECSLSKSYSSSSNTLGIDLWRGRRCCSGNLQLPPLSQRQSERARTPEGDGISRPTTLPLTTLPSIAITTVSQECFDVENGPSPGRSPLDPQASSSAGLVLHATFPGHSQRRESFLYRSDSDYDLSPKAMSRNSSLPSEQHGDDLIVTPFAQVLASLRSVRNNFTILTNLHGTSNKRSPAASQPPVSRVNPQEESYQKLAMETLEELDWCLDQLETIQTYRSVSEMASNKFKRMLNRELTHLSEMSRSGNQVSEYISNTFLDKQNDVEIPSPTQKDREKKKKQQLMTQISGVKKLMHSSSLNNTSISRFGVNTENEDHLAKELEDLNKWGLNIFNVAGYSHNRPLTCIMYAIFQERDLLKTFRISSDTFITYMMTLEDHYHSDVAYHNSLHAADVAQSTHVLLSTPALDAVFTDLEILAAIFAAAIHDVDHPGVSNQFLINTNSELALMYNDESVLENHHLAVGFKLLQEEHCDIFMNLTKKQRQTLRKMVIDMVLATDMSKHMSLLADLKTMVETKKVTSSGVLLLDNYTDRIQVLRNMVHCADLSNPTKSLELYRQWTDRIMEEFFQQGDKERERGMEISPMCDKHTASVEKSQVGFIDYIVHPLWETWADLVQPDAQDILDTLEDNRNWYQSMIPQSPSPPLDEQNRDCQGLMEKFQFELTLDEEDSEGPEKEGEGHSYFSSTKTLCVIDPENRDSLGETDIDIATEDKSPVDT
Chain of 3',5'-cyclic-AMP phosphodiesterase 4A (P27815 whole entry): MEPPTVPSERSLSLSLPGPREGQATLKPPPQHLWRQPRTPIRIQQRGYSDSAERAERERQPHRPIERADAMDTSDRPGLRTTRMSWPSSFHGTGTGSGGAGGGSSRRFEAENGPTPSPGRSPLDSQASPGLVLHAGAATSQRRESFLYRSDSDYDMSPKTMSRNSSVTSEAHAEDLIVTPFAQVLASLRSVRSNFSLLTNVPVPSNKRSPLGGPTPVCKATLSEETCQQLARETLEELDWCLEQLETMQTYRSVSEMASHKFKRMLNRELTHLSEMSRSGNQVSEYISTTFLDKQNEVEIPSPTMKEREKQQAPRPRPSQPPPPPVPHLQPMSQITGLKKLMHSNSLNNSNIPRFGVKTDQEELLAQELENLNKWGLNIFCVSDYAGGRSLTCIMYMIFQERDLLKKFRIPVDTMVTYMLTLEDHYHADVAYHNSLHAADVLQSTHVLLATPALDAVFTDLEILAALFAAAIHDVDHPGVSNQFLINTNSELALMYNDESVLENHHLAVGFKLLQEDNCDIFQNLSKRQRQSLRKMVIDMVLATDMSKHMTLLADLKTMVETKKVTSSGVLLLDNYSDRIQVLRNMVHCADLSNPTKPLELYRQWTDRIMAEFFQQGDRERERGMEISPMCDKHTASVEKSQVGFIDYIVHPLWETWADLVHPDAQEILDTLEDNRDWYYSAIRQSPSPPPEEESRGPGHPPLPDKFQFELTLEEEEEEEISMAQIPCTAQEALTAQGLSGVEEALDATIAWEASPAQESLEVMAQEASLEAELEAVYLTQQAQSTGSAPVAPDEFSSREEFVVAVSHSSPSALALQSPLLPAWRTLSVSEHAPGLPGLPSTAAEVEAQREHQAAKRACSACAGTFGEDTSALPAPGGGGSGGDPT

## Cn1nc(-c2ccc(Cl)cc2)s/c1=N\c1ccc(F)c(C(=O)O)c1
[1]
  bioavailability: 49.3%
[2]
  IC50: 3970 nM
[3]
  IC50: 160 nM

## CCn1ncc2c(NC3CCOCC3)c(-c3nnc(Cc4sc(C)nc4C)o3)cnc21 [GSK-356278]
Phosphodiesterase 3
  IC50: 5 nM
[4]
  IC50: 0.76 nM

## Cn1nc(-c2ccc(Cl)cc2)s/c1=N\C1CCCCC1
Phosphodiesterase 7 [5]
  IC50: 1500 nM

## OCC/N=c1/nc(-c2ccccc2)n(-c2ccccc2)s1
[6]
  IC50: 1950 nM

## CCCCc1nc2c(c(=O)n(C)c(=O)n2C)n1CCCC(=O)Nc1cc(C(C)(C)C)ccc1O
[7]
  IC50: 543 nM

## CCOC(=O)c1sc(Nc2nc(NCc3ccc(S(N)(=O)=O)cc3)c3c(ncn3CC)n2)nc1C
[8]
  solubility: 5 µg/mL (≈ 9.68 µM)

## O=C1Nc2c(Cl)cccc2C2(CCCCC2)N1
Phosphodiesterase 7 [9]
  IC50: 170 nM

## c1ccc(-c2n/c(=N/CCN3CCOCC3)sn2-c2ccccc2)cc1
[10]
  IC50: 880 nM
Phosphodiesterase 7 [11]
  IC50: 1590 nM

## COc1cc(Cn2c(=O)c3cc(OC(CF)CF)ccc3n(C3CCN(C=O)CC3)c2=O)ccc1OCC(=O)N1CCCCC1
Phosphodiesterase 7 [11]
  IC50: 46 nM

## CN1CCN(C(=O)c2ccc(-c3cc(Cl)c4c(c3)C3(CCCCC3)NC(=O)N4)cc2)CC1
Phosphodiesterase 7 [9]
  IC50: 14 nM
[12]
  bioavailability: 27%
Phosphodiesterase 4 [13]
  IC50: 1700 nM
[14]
  half-life: 1.5 h

## O=C1Nc2c(Cl)cc(-c3ccccc3)cc2C2(CCCCC2)N1
Phosphodiesterase 7 [9]
  IC50: 16 nM
Phosphodiesterase 4 [13]
  IC50: 1420 nM

## CCn1c(NC(C)C)nc2c(C3CCN(C(=O)c4cccc(C)n4)C3)csc2c1=O (stereo not given)
Phosphodiesterase 4 [15]
  IC50: 46 nM
Phosphodiesterase 7 [16]
  IC50: 3.3 nM

## CCOC(=O)c1cc2c(=O)n3ccccc3nc2n(C2CCCCC2)/c1=N\C(C)=O
[7]
  IC50: 305 nM
[17]
  IC50: 142 nM
[18]
  IC50: 112 nM

## O=c1c2ccccc2[nH]c(=S)n1-c1ccccc1
[19]
  IC50: 8800 nM

## Fc1cc2nc(S)[nH]c(=S)c2cc1F
Phosphodiesterase 7 [5]
  IC50: 74 nM

## O=C(Nc1ccc(N2CCOCC2)cc1)c1cn(Cc2c(F)cccc2F)c2cccnc2c1=O
Phosphodiesterase 4 [15]
  IC50: 380 nM

## Cn1nc(-c2ccc(C(N)=O)cc2)s/c1=N\C1CCCCC1
[2]
  IC50: 15300 nM
[3]
  IC50: 61 nM

## CSc1nc2c(C)cccc2c(=O)n1-c1c(F)cccc1F
Phosphodiesterase 4 [15]
  IC50: 1400 nM
Phosphodiesterase 7 [5]
  IC50: 130 nM

## COc1ccc(C2=NN(C3CCCC3)C(=O)[C@@H]3CC=CC[C@H]23)cc1Cl
Phosphodiesterase 3
  IC50: 0.76 nM
[20]
  Kp at 0.5 h: 1.69
[4]
  IC50: 18.6 nM

## COc1cc(-c2nc(NC3CCCC3)c3ccsc3n2)cc(OC)c1OC
Phosphodiesterase 7 [5]
  IC50: 20 nM

## COc1ccc(Cn2c(=O)c3cc(OC(CF)CF)ccc3n(C3CCN(C=O)CC3)c2=O)cc1OC
Phosphodiesterase 7 [11]
  IC50: 39 nM
[21]
  IC50: 140 nM

## Cc1ccc([N+](=O)[O-])cc1S(=O)(=O)N(C)C
[19]
  IC50: 620 nM
Homo sapiens
  Ratio IC50: 238

## Br.c1ccc(-c2n/c(=N/CCC3CCOCC3)sn2-c2ccccc2)cc1
Phosphodiesterase 3
  IC50: > 10000 nM
Phosphodiesterase 7 [5]
  IC50: 1590 nM

## CC(C)Cn1c(=O)n(C)c(=O)c2nc[nH]c21 [ISOBUTYLMETHYLXANTHINE]
Phosphodiesterase 7 [11]
  IC50: 8100 nM

## COc1ccc(Cn2c(=O)c3cc(OCC#N)ccc3n(C3CC[S+]([O-])CC3)c2=O)cc1OC (stereo not given)
Phosphodiesterase 7 [5]
  IC50: 6.1 nM

## CCOc1cc2cc(CO)c(CO)c(-c3ccnc(-n4nc(-c5cccnc5)c5ccccc5c4=O)c3)c2cc1OCC
[22]
  IC50: 130 nM
[23]
  Ratio IC50: 13
[19]
  IC50: 1700 nM

## COc1cc(CN(Cc2ccc(OC)cc2OC)c2ncnc3c2nnn3C2CC(C(F)(F)F)CCC2(F)F)cc(OC)c1 (stereo not given)
Phosphodiesterase 4 [15]
  IC50: 11900 nM
Phosphodiesterase 7 [5]
  IC50: < 10 nM

## O=C1Nc2c(Cl)cc3nc(CN4CCNCC4)oc3c2C2(CCCCC2)N1
[2]
  IC50: < 10 nM

## c1ccc(-c2n/c(=N/Cc3cccnc3)sn2-c2ccccc2)cc1
[10]
  IC50: 1280 nM
Phosphodiesterase 7 [11]
  IC50: 380 nM

## O=C1Nc2c(Cl)ccc(OCCO)c2C2(CCCCC2)N1
Phosphodiesterase 7 [9]
  IC50: 55 nM
Phosphodiesterase 7 [5]
  IC50: 55 nM

## COc1ccc(C2=NN(C3CCN(C(=O)N4CCOCC4)CC3)C(=O)[C@@H]3CC=CC[C@H]23)cc1Cl
[22]
  IC50: 2.3 nM
[23]
  Ratio IC50: 10
[19]
  IC50: 23 nM

## FC(F)(F)c1cc(N2C(=S)Nc3ccccc3C23CCc2ccccc2N3)cc(C(F)(F)F)c1 (stereo not given)
[2]
  IC50: < 171 nM

## CC(C)(C)CSc1nc2ccccc2c(=O)n1-c1ccccc1
Phosphodiesterase 7 [5]
  IC50: 100 nM

## COc1ccc(-c2cc3c(n2-c2ccc(S(=O)(=O)Nc4nc(C)cc(C)n4)cc2)CCC(N2CCN(C)CC2)C3)cc1C (stereo not given)
[22]
  IC50: 630 nM
[23]
  Ratio IC50: 45
[19]
  IC50: 14 nM

## COc1ccc(/C(CSc2nc3ccccc3c(=O)n2-c2ccccc2)=N\O)cc1
Phosphodiesterase 7 [5]
  IC50: 1150 nM

## N=c1nc(-c2ccccc2)n(-c2ccccc2)s1
[10]
  IC50: 6300 nM
Phosphodiesterase 7 [11]
  IC50: 1020 nM

## N#Cc1cc(Cn2c(=O)c3cc(OC(CF)CF)ccc3n(C3CCN(C=O)CC3)c2=O)ccc1-c1ccccc1
Phosphodiesterase 7 [11]
  IC50: 37 nM
[21]
  IC50: 15 nM

## CN(C)C(=O)CCN(C)C(=O)c1nc2cc(Cl)c3c(c2o1)C1(CCCCC1)NC(=O)N3
[2]
  IC50: < 10 nM

## Cn1nc(-c2ccc(C(N)=O)cc2)s/c1=N\[C@@H]1CCC[C@@H](O)C1
[1]
  bioavailability: 38.5%
[2]
  IC50: 616 nM
[3]
  IC50: 88 nM

## S=c1[nH]c2ccccc2c(=S)n1-c1ccccc1
Phosphodiesterase 7 [5]
  IC50: 550 nM

## O=S1(=O)N=C(O)c2ccccc2N1
Phosphodiesterase 7 [5]
  IC50: 8000 nM

## COc1ccc(Cn2c(=O)c3cc(OCC#N)ccc3n(C3CCSCC3)c2=O)cc1OC
Phosphodiesterase 7 [5]
  IC50: 5.5 nM

## O=C1Nc2c(Cl)ccc(Oc3ccccc3-c3nnn[nH]3)c2C2(CCCCC2)N1
[2]
  IC50: < 0.15 nM

## CCOc1ccc(-c2c(C(C)(C)O)oc(=O)c3ccccc23)cc1OC1CCCC1
[17]
  IC50: 1400 nM
